Experimental data reported in patent publication US20150164916A1, “ROFLUMILAST COMPOSITIONS FOR THE TREATMENT OF COPD” (Forest Laboratories Holdings Ltd., priority 2012, published 2015).
Where “and” joins values, the source holds several entries; their conditions need not be identical. Equal entries are not always repeated. Where two headings read alike, the source gives them in different places. Each block holds one molecule with its values, some of them ahead of it.

Columns and labels:
Format in all cases: cell-based, human
[1] = tested on: HDAC2; experiment: Real time RT-PCR of HDAC2 expression in CSE-stimulated neutrophils from COPD patients; settings: RNO 1 nM and 1 μM, DEX 1 μM, RNO 1 nM plus DEX 1 μM, NAC 1 mM, CSE 5%
Description: (§1) Neutrophils and monocytes were isolated from peripheral venous blood by standard laboratory procedures. In brief, peripheral venous blood was mixed with dextran 500 at 3% (in 0.9% saline) in a proportion of 2:1. This mixture was incubated at room temperature for 30 min until erythrocytes were sedimented. The upper phase was carefully collected and added on Ficoll-Paque Histopaque 1077 (Amershan Pharmacia Biotech, Barcelona, Spain) density gradient in a proportion of 3:1. The two phases generated were centrifuged at 150 g, 4° C. for 30 min. […]
(§2) CSE was prepared as previously outlined (Milara et al.; Ortiz et al.). […] The quality of the prepared CSE solution was assessed based on the absorbance at 320 nm, which is the specific absorption wavelength of peroxynitrite. Stock solutions with an absorbance value of 3.0±0.1 were used. […]
(§3) Total RNA was obtained from isolated neutrophils under basal conditions or after different drug and stimulation periods defined above by using TriPure® Isolation Reagent (Roche, Indianapolis, USA). […] Relative quantification of these transcripts was determined with the 2^−ΔΔCt method using glyceraldehyde phosphate dehydrogenase (GAPDH) as endogenous control (Applied Biosystems; 4352339E) and normalized to control group as previously described (Milara et al., 2009).
(§4) Then, mRNA was isolated and quantified for different genes.

[2] = tested on: p-ERK1/2; experiment: Western blot of ERK1/2 phosphorylation in CSE-stimulated neutrophils from COPD patients; settings: RNO 1 nM and 1 μM, DEX 1 μM, RNO 1 nM plus DEX 1 μM, NAC 1 mM for 1 h, then CSE 5% 20 min
Description: as §1, §2
Western blot analysis was used to detect changes in p-ERK1/2 (42-44 kD). […] Cells were then centrifuged and the total protein was extracted using a lysis buffer consisting of a complete inhibitor cocktail plus 1 mM ethylenediaminetetraacectic acid (Roche Diagnostics Ltd, West Sussex, UK) with 20 mM Tris base, 0.9% NaCl, 0.1% Triton X-100, 1 mM dithiothreitol and 1 μg mL^−1 pepstatin A. The Bio-Rad assay (Bio-Rad Laboratories Ltd., Herts, UK) was used (following manufacturer's instructions) to quantify the level of protein in each sample to ensure equal protein loading. […]

[3] = tested on: MKP1; experiment: Real time RT-PCR of MKP1 mRNA in CSE-stimulated neutrophils from COPD patients; settings: RNO 1 nM and 1 μM, DEX 1 μM, RNO 1 nM plus DEX 1 μM, NAC 1 mM for 1 h, then CSE 5% 6 h
Description: as §1, §2, §3, §4

[4] = tested on: PI3Kδ; experiment: Real time RT-PCR of PI3Kδ expression in CSE-stimulated neutrophils from COPD patients; settings: RNO 1 nM and 1 μM, DEX 1 μM, RNO 1 nM plus DEX 1 μM, NAC 1 mM, CSE 5%
Description: as §1, §2, §3, §4

[5] = tested on: MMP-9 release; experiment: LPS- or CSE-induced MMP-9 release in isolated peripheral blood neutrophils (LUMINEX); settings: for Maximal % Inhibition of MMP-9 release / IC50: 6 h; for IC50: Homo sapiens, Neutrophil, read-out: -log IC50, inhibition of MMP-9 release (converted)
Description: (§5) Neutrophils and monocytes were isolated from peripheral venous blood by standard laboratory procedures. In brief, peripheral venous blood was mixed with dextran 500 at 3% (in 0.9% saline) in a proportion of 2:1. This mixture was incubated at room temperature for 30 min until erythrocytes were sedimented. The upper phase was carefully collected and added on Ficoll-Paque Histopaque 1077 (Amershan Pharmacia Biotech, Barcelona, Spain) density gradient in a proportion of 3:1. The two phases generated were centrifuged at 150 g, 4° C. for 30 min. Thus, the interface was collected to isolate monocytes, and the pellet obtained (which is consisted a mixture of neutrophils and low proportion of residual erythrocytes and traces of eosinophils and basophils) was resuspended in an erythrocyte lysis buffer (Biolegend, UK) for 5 min in ice. Cell suspension was washed two times with phosphate buffer (PBS).
(§6) CSE was prepared as previously outlined (Milara et al.; Ortiz et al.). Briefly, the smoke of a research cigarette (2R4F; Tobacco Health Research, University of Kentucky, KY, USA) was generated by a respiratory pump (Apparatus Rodent Respirator 680; Harvard, Germany) through a puffing mechanism related to the human smoking pattern (3 puff/min; 1 puff 35 ml; each puff of 2 s duration with 0.5 cm above the filter) and was bubbled into a flask containing 25 ml of pre-warmed (37° C.) RPMI 1640 culture medium supplemented as describe above. The CSE solution was sterilized by filtration through a 0.22-μm cellulose acetate sterilizing system (Corning, N.Y.). The resultant CSE solution was considered to be 100% CSE and was used for experiments within 30 min of preparation. CSE 10% corresponds approximately to the exposure associated with smoking two packs per day (Su et al., 1998). The quality of the prepared CSE solution was assessed based on the absorbance at 320 nm, which is the specific absorption wavelength of peroxynitrite. Stock solutions with an absorbance value of 3.0±0.1 were used. To test for cytotoxicity from CSE, isolated neutrophils and monocytes were treated with CSE concentrations of up to 5% for 24.
(§7) Peripheral neutrophil cell suspension was adjusted to 500×10^3 cells per well in 24-well plates and incubated in RPMI culture medium for 1 h into the incubator at 37° C., 5% CO2. […] Both the stimulus and drug were remained together for 6 h. Supernatants were collected and centrifuged at 120 g for 5 min, and the free-cell supernatant was used to measure IL-8, MMP-9, IL-1β, GM-CSF and CCL-5.
(§8) IL-8 was determined by using commercially available enzyme-linked immunosorbent assay kit for IL-8 (R&D Systems, UK) according to the manufacturer's protocol. MMP-9, IL-1β, GM-CSF and CCL-5 were measured by LUMINEX technology according to the manufacturer's protocol.
(§9) Data were presented as mean±SEM. IC50 values were calculated for each drug and their combinations. Statistical analysis of results was carried out by analysis of variance (ANOVA) followed by Bonferroni test, by Student's t test, or by non-parametric tests as appropriate (GraphPad Software Inc, San Diego, Calif., USA). Significance was accepted when P<0.05. For clinical correlations of lung function and gene expression from neutrophils the non-parametric Spearman correlation analysis was carried out.

[6] = tested on: IL-8 release; experiment: LPS- or CSE-induced IL-8 release in isolated peripheral blood neutrophils (ELISA); settings: for Maximal % Inhibition of IL-8 release / IC50: 6 h; for IC50: Homo sapiens, Neutrophil, read-out: -log IC50, inhibition of IL-8 release (converted)
Description: as §5, §6, §7, §8, §9

[7] = tested on: MIF; experiment: Real time RT-PCR of MIF mRNA in CSE-stimulated neutrophils from COPD patients; settings: RNO 1 nM and 1 μM, DEX 1 μM, RNO 1 nM plus DEX 1 μM, NAC 1 mM for 1 h, then CSE 5% 6 h
Description: as §1, §2, §3, §4

[8] = tested on: GCβ; experiment: Real time RT-PCR of GCβ mRNA in CSE-stimulated neutrophils from COPD patients; settings: RNO 1 nM and 1 μM, DEX 1 μM, RNO 1 nM plus DEX 1 μM, NAC 1 mM, CSE 5%
Description: as §1, §2, §3, §4

[9] = tested on: intracellular ROS; experiment: Intracellular reactive oxygen species (ROS) by flow cytometry in whole blood neutrophils from COPD patients; settings: fMLP 1 μM or CSE 5%, 1 h, NAC 1 mM
Description: Intracellular reactive oxygen species (ROS) were measured by a flow cytometry assay using 2′,7′-dichlorodihydrofluorescein diacetate (H2DCF-DA, Molecular Probes, UK) as previously outlined (Milara et al., 2010). H2DCF-DA was added for 15 min before stimulus to a final concentration of 5 μM to measure intracellular ROS. The bacterial peptide fMLP was added as stimulus at 1 μM […] to generate intracellular ROS (Elbim et al., 2001). In other experiments, to reproduce in vivo conditions, CSE 5% was added to generate intracellular ROS. Intracellular ROS was measured using fresh whole blood from COPD patients. Blood neutrophils were selected using CD16-Alexa Fluor 647 antibody (molecular probes, UK) as neutrophil marker, and CD14-PerCEP-Cy5.5 mouse antihuman (molecular probes, UK) as monocyte marker in an Epics Profile II flow cytometer. A total of 1 ml of whole blood was pre-incubated at 37° C. for 30 min with RNO ([…] (1 mM) and H2DCF-DA followed by fMLP 1 μM or CSE 5% stimulation for another 1 h. Then erythrocytes were lysed using a commercial erythrocyte lysis buffer (Biolegend, UK) for 10 min. Fluorescence intensity was measured in the polymorphonuclear region of whole blood in an Epics Profile II flow cytometer. Results were expressed as DCF fluorescence in relative fluorescence units (RFU).
To this end, whole blood was stimulated with the bacterial peptide fMLP 1 μM or with CSE 5% in presence or absence of RNO or NAC for 1 h.

[10] = tested on: CCL-5 release; experiment: LPS-induced CCL-5 release in isolated peripheral blood neutrophils (LUMINEX); settings: for IC50: Homo sapiens, Neutrophil
Description: as §5, §7, §8, §9

[11] = tested on: IL-1β release; experiment: LPS-induced IL-1β release in isolated peripheral blood neutrophils (LUMINEX); settings: for IC50: Homo sapiens, Neutrophil
Description: as §5, §7, §8, §9

[12] = COPD neutrophils stimulated with LPS or CSE, LY-294002 10 μM, NAC 1 mM
[13] = LPS (1 μg/ml), 6 h, neutrophils from COPD patients
[14] = LPS (1 μg/ml), 6 h, neutrophils from HEALTHY
[15] = CSE 5%, neutrophils from COPD patients
[16] = CSE 5%, neutrophils from HEALTHY
[17] = LPS (1 μg/ml), neutrophils from COPD patients
[18] = LPS (1 μg/ml), neutrophils from HEALTHY

SMILES: CC(=O)N[C@@H](CS)C(=O)O [NAC, N-acetyl-1-cysteine]
effect on CSE-induced HDAC2 downregulation [1]: inhibited
effect on CSE-induced phosphorylation of ERK1/2 [2]: inhibited
effect on CSE-induced down-regulation of MKP1 mRNA expression [3]: effectively increased
effect on CSE-induced PI3Kδ upregulation [4]: inhibited
rescue of DEX anti-inflammatory effect on MMP-9 release [5, 12]: able to rescue DEX anti-inflammatory effect
rescue of DEX anti-inflammatory effect on IL-8 release [6, 12]: able to rescue DEX anti-inflammatory effect
effect on CSE-induced increase of MIF mRNA expression [7]: reduced
effect on CSE-induced GCβ upregulation [8]: inhibited
effect on ROS generation in neutrophils [9]: inhibited

IC50 ([10]; 6 h, LPS (1 μg/ml), 6 h, neutrophils from COPD patients, read-out: -log IC50, inhibition of CCL-5 release (converted)): 32.4 nM
IC50 ([10]; LPS, neutrophils from COPD patients, read-out: -log IC50, CCL-5 release (converted)): 32.4 nM
IC50 [5, 15]: 2.19 nM
IC50 [5, 17]: 46.8 nM
IC50 ([11]; 6 h, LPS (1 μg/ml), 6 h, neutrophils from COPD patients, read-out: -log IC50, inhibition of IL-1β release (converted)): 45.7 nM
IC50 ([11]; LPS, neutrophils from COPD patients, read-out: -log IC50, IL-1β release (converted)): 45.7 nM
IC50 [6, 15]: 15.5 nM
IC50 [6, 17]: 42.7 nM
SMILES: C[C@@H]1C[C@H]2[C@@H]3CCC4=CC(=O)C=C[C@]4(C)[C@@]3(F)[C@@H](O)C[C@]2(C)[C@@]1(O)C(=O)CO [DEX, dexamethasone]
IC50 ([10]; 6 h, LPS (1 μg/ml), 6 h, neutrophils from HEALTHY, read-out: -log IC50, inhibition of CCL-5 release (converted)): 7.24 nM
IC50 ([10]; LPS, neutrophils from healthy volunteers, read-out: -log IC50, CCL-5 release (converted)): 7.24 nM
Maximal % Inhibition of CCL-5 release [10, 13]: 86.30 ± 10.16%
Maximal % Inhibition of CCL-5 release [10, 14]: 83.78 ± 8.64%
Maximal % Inhibition of MMP-9 release [5, 15]: 15.4% and 15.44 ± 6.95 %
Maximal % Inhibition of MMP-9 release [5, 16]: 83.9 ± 5.79%
IC50 [5, 16]: 1.38 nM
IC50 [5, 18]: 6.03 nM
Maximal % Inhibition of MMP-9 release [5, 17]: 8.8%
Maximal % Inhibition of MMP-9 release [5, 18]: 96.8 ± 5.1%
IC50 ([11]; 6 h, LPS (1 μg/ml), 6 h, neutrophils from HEALTHY, read-out: -log IC50, inhibition of IL-1β release (converted)): 10.7 nM
IC50 ([11]; LPS, neutrophils from healthy volunteers, read-out: -log IC50, IL-1β release (converted)): 10.7 nM
Maximal % Inhibition of IL-1β release [11, 13]: 77.16 ± 5.69%
Maximal % Inhibition of IL-1β release [11, 14]: 79.58 ± 5.57%
Maximal % Inhibition of IL-8 release [6, 15]: 20.6%
Maximal % Inhibition of IL-8 release [6, 16]: 94.33 ± 21.7%
IC50 [6, 16]: 17 nM
IC50 [6, 18]: 47.9 nM
Maximal % Inhibition of IL-8 release [6, 17]: 15%
Maximal % Inhibition of IL-8 release [6, 18]: 67.08 ± 11.41%
